Laboratory results taken from publication PMC7011974, “Benzimidazole derivatives endowed with potent antileishmanial activity” (Journal of Enzyme Inhibition and Medicinal Chemistry, 2017).
Read-outs that look alike come from different tables or passages of the source.

Experiments:
[1] = tested on: L. tropica promastigotes; experiment: Antileishmanial activity on L. tropica promastigotes (MTT); format: cell-based, Leishmania tropica; details: for IC50: Leishmania tropica, 72 h, read-out: IC50 (µM) L. tropica
[2] = tested on: L. infantum promastigotes; experiment: Antileishmanial activity on L. infantum promastigotes (MTT); format: cell-based, Leishmania infantum; details: for IC50: Leishmania infantum, 72 h, read-out: IC50 (µM) L. infantum
[3] = Cytotoxicity on Vero-76 cells (crystal violet); details: monkey, Vero-76 cells
[4] = tested on: monkey kidney (Vero76) cells; experiment: Cytotoxicity on Vero-76 cells (crystal violet)
[5] = tested on: human microvascular endothelial cell line (HMEC-1); experiment: Cytotoxicity on HMEC-1 cells (MTT); format: cell-based
[6] = tested on: intramacrophagic amastigote stage of L. infantum; experiment: In vitro intracellular amastigote susceptibility assay in THP-1 macrophages; format: cell-based, Leishmania infantum
Description: (b) In vitro intracellular amastigote susceptibility assays. […] Cell monolayers were then washed and incubated with compounds for 72 h. Slides were fixed with methanol and stained with Giemsa. The percentage of infected macrophages in treated and non-treated cells was determined by light microscopy.

[7] = in vitro; details: monkey
[8] = promastigotes, MTT, starred values mean of two experiments
[9] = fold potency versus miltefosine
[10] = percent of amphotericin B potency, calculated for each experiment

Row | SMILES | IC50 [1, 8] [µM] | Ratio IC50 miltef./IC50 compd., L. tropica [1, 9] | IC50 amph. B ×100/IC50 compd., L. tropica [1, 10] | IC50 ([2]; promastigotes, MTT) [µM] | Ratio IC50 miltef./IC50 compd., L. infantum [2, 9] | IC50 amph. B ×100/IC50 compd., L. infantum [2, 10] | IC50 [3] [µM] | SI L. infantum (IC50 Vero76/IC50 L. infantum) ([4]; selectivity index, Vero76) | SI L. tropica (IC50 Vero76/IC50 L. tropica) ([4]; selectivity index, Vero76) | other results
1 | FC(F)(F)c1ccc2c(c1)nc(-c1ccc(Cl)cc1)n2C[C@@H]1CCCN2CCCC[C@H]12 [Compound 36, N-lupinyl-5-trifluoromethyl-2-(4-chlorophenyl)benzimidazole] | 12.6 ± 4.54 | 3.4 | 0.69 | 12.5 ± 3.51 | 2.5 | 0.95 | 24 | 1.92 | 1.90 | 
2 | CC(=O)c1ccc2c(c1)nc(Cc1ccc(Cl)cc1)n2C[C@@H]1CCCN2CCCC[C@H]12 [Compound 30] | 12.1 ± 4.06 | 3.6 | 1.46 | 15.9 ± 3.21 | 2.0 | 1.32 | > 100 | >6.30 | >8.24 | 
3 | CCCCCCCCCCCCCCCc1n(C)c2ccccc2[n+]1C.[I-] [Compound 8, 1,3-Dimethyl-2-pentadecyl-1 H-benzimidazol-3-ium iodide] | 0.19 ± 0.06 |  |  | 0.34 ± 0.12 |  | 27.8 | 5.8 |  |  | Fold more potent than miltefosine against L. infantum, taking the lowest literature IC50 (15 μM) ([2]; miltefosine IC50 15 μM from literature): 43 fold; IC50 ([5]; Homo sapiens, cytotoxicity, HMEC-1 cells, MTT): 0.78 ± 0.06 µM; Selectivity index (SI) range versus HMEC cells ([5]; range over L. tropica and L. infantum): 2.3–7.4; SI L. infantum (IC50 HMEC-1/IC50 L. infantum) ([5]; selectivity index, HMEC-1): 2.29; SI L. tropica (IC50 HMEC-1/IC50 L. tropica) ([5]; selectivity index, HMEC-1): 4.10; Fold increased potency with respect to miltefosine, amastigotes ([6]; L. infantum amastigotes in THP-1): 3.35 fold; IC50 ([6]; Leishmania infantum, THP-1 macrophages, 72 h, read-out: IC50 against intramacrophagic amastigote stage of L. infantum): 0.313 µM; melting point: 169 to 172 °C
4 | COc1ccc(-c2nc3cc(C(F)(F)F)ccc3n2C[C@@H]2CCCN3CCCC[C@H]23)cc1 [Compound 38] | 6.54 ± 0.18 | 6.6 | 2.71 | 11.2 ± 1.33 | 2.8 | 1.86 | 75 | 6.68 | 11.47 | 
5 | Oc1ccc(-c2nc3cc(C(F)(F)F)ccc3n2C[C@@H]2CCCN3CCCC[C@H]23)cc1 [Compound 37] | 13.5 ± 2.21 | 3.2 | 1.31 | 17.4 ± 1.49 | 1.8 | 1.20 | 78 | 4.49 | 5.76 | 
6 | CCN(CC)CCCn1c(-c2ccc(OC)cc2)nc2cc(C(F)(F)F)ccc21 [Compound 27] | 21.1 ± 5.84 | 2.1 | 0.84 | 32.7 ± 3.92 | 1.0 | 0.64 | > 100 | >3 | >4.74 | Antileishmanial activity in words ([1]; promastigotes of L. tropica and/or L. infantum): moderately active
7 | O=[N+]([O-])c1ccc2c(c1)nc(Cc1ccc(Cl)cc1)n2C[C@@H]1CCCN2CCCC[C@H]12 [Compound 33] |  |  |  |  |  |  |  |  |  | IC50 amph. B ×100/IC50 compd., L. tropica [1]: 2.63; Ratio IC50 miltef./IC50 compd., L. tropica [1]: 11.0; IC50 [1]: 3.92 ± 1.43 µM; IC50 amph. B ×100/IC50 compd., L. infantum [2]: 1.73; Ratio IC50 miltef./IC50 compd., L. infantum [2]: 4.6; IC50 [2]: 6.82 ± 1.25 µM; IC50 [7]: 68 µM; SI L. infantum (IC50 Vero76/IC50 L. infantum) [4]: 9.97; SI L. tropica (IC50 Vero76/IC50 L. tropica) [4]: 17.35
